Experimental findings from patent publication US5500427A, “Cyclic compounds and their use” (Takeda Chemical Industries, Ltd., priority 1992, dated 1996) are described below.

The target in one experiment is T1, angiotensin II receptor (Bos taurus, UniProt P25104).
T1 construct: An A-II receptor membrane fraction was prepared from bovine adrenal cortex; from tissue; host or cells: bovine adrenal cortex membrane fraction
T1 sequence (P25104 1-359): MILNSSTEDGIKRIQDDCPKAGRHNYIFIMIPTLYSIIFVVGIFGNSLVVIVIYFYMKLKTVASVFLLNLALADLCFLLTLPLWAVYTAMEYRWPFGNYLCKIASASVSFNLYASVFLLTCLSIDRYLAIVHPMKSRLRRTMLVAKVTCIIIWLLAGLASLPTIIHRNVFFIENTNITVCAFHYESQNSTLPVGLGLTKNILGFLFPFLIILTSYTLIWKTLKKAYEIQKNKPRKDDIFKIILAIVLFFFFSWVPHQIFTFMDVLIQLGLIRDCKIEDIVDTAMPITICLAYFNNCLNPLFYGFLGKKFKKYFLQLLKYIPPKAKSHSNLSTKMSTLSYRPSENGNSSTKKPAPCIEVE
Put plainly: Inhibitory Effect of Binding of Angiotensin-II to Angiotensin II Receptor (radioreceptor assay). The settings on record: 125I-angiotensin II, bovine adrenal cortex membrane, room temperature, one hour; for inhibition at 1 µM: 10^-6 M; for inhibition at 0.1 µM: 10^-7 M. How it is done:
Inhibitory Effect of Binding of Angiotensin-II to Angiotensin II Receptor
An experiment of inhibition on the binding of angiotensin II (A-II) receptor was performed by modified the method of Douglas et al. [Endocrinology, 102, 685-696 (1978)]. An A-II receptor membrane fraction was prepared from bovine adrenal cortex.
The compound of the present invention (10^-6 M or 10^-7 M) and ^125 I-angiotensin II (^125 I-AII) (2.44 KBq/50 microliter) were added to the receptor membrane fraction, and the mixture was incubated at room temperature for one hour. The receptor-bound and free I-AII were separated through a filter (Whatman GF/B filter), and the radioactivity of ^125 I-AII bound to the receptor was determined.

For experiment [1], the system named is AII-induced Pressor Response. As to the kind of experiment: Inhibitory Effect of the Compound of the Present Invention on AII-induced Pressor Response. The format is in vivo. The settings on record: A-II 100 ng/kg i.v., male Jcl:SD rats. The text has this: Inhibitory Effect of the Compound of the Present Invention on AII-induced Pressor Response
Jcl:SD rats (9 week old, male) were used. On the previous day of the experiment, rats were applied with cannulation into the femoral artery and vein under anesthesia with pentobarbital Na. These animals were fasted but allowed to access freely to drinking water until the experiment was started. Just on the day of conducting the experiment, the artery cannula was connected with a blood-pressure transducer, and the average blood pressure was recorded by polygraph. Before administration of the drug, the pressor action due to intravenous administration of A-II (100 ng/kg) as the control was determined. The drugs were orally administered, then, at each point of the determination, A-II was administered intravenously, and the pressor action was similarly determined. By comparing the pressor action before and after administration of the drug, the percent inhibition by the drug was evaluated.

By inhibition is commonly meant the percentage by which the read-out fell short of the control. A higher inhibition goes with a strong effect. At angiotensin II receptor, `CCCCN(Cc1ccc(-c2ccccc2-c2nc(=O)o[nH]2)cc1)c1ncccc1C(=O)O` [Example 6, 2-[N-butyl-N-[2'-(2,5-dihydro-5-oxo-1,2,4-oxadiazol-3-yl)biphenyl-4-yl]methylamino]pyridine-3-carboxylic acid] had an inhibition at 1 µM of 55% and an inhibition at 0.1 µM of 16%. The “Pressor Response [p.o.] (percent inhibition of A-II pressor action)” value in experiment [1] (1 mg/kg p.o.) is given as “+++ (+++ ≥ 70%)”.
Molecule `CCCN(Cc1ccc(-c2ccccc2-c2noc(=O)[nH]2)cc1)c1ncccc1C(=O)O` [Example 2] displayed an inhibition at 1 µM at angiotensin II receptor of 52%. At angiotensin II receptor, this molecule had an inhibition at 0.1 µM of 17%. For the same molecule, the “Pressor Response [p.o.] (percent inhibition of A-II pressor action)” value in experiment [1] (0.3 mg/kg p.o.) and in experiment [1] (1 mg/kg p.o.) was “+++ (+++ ≥ 70%)” throughout.
On angiotensin II receptor, `CCCN(Cc1ccc(-c2ccccc2-c2nsc(=O)[nH]2)cc1)c1ncccc1C(=O)O` [Example 4] displayed an inhibition at 1 µM of 61% and an inhibition at 0.1 µM of 20%. Also, the “Pressor Response [p.o.] (percent inhibition of A-II pressor action)” value in experiment [1] (1 mg/kg p.o.) is listed as “+++ (+++ ≥ 70%)”.
